Data reported in patent US8664243B2, “Sulfonamide compound and crystal thereof” (Asahi Kasei Pharma Corporation, priority 2007, dated 2014).

Tests used:
Format in all cases: physicochemical
[1] = Thermal stability test (sealed glass vial, dark place, 60° C.); settings: for Appearance / Water content / Purity: 60° C., dark, sealed vial; for Purity: HPLC
Experimental: Thermal stability of Compound 1 or the substance in the form of a salt can be evaluated by, for example, sealing a sample in a glass vial or the like, storing the vial under a severe temperature condition such as 40 to 80° C. in a dark place for a given period of time, and then observing or measuring appearance, purity, water content and the like of Compound 1 or the substance in the form of a salt. Change of purity before and after storage especially serves as an important index of thermal stability. For example, the evaluation is preferably performed under a storage condition of 60° C. • High performance liquid chromatography apparatus: LC-10A Series (Shimadzu) or Agilent 1100 series (Agilent Technologies) • Solution concentration: 500 μg/ml • Injection: 10 μl • Detector: Ultraviolet absorptiometer (measurement wavelength: 245 nm) • Column: XBridge Shield RP18 5 μm, internal diameter: 4.6 mm, length: 15 cm (Waters) • Column temperature: Constant temperature around 40° C. • Mobile phase A: 20 mmol/l Sodium phosphate buffer (pH 7.0) • Mobile phase B: Acetonitrile • Liquid feeding program: A concentration gradient was formed by changing the mixing ratio of the mobile phase A and the mobile phase B as shown in Table 1. • Flow rate: 1.0 ml/minute • Water content measurement apparatus: AQ-7 (Hiranuma Sangyo) • Sample amount: 5 mg • Anolyte: Aqualyte RS (Sigma-Aldrich) • Catholyte: Aqualyte CN (Sigma-Aldrich) The monohydrochloride obtained by the method described in Example 3, the monohydrobromide obtained by the method described in Example 4, and the dihydrochloride as a control were weighed in a glass vial in an amount of 40 mg each, and the glass vial was sealed. Each sample was stored in a dark place at 60° C. for 2 to 4 weeks, and after the storage, appearance was evaluated by visual inspection. Further, purity was measured under the conditions of Test Example 7, and water content was measured under the conditions of Test Example 8.

[2] = Hygroscopicity Test 2 (25° C. and 84% RH; free base, salts and salt mixtures); settings: for Appearance / Water content / Purity: 25° C. and 84% RH, dark; for Purity: HPLC
Experimental: (§1) Hygroscopicity of Compound 1 or the substance in the form of a salt can be evaluated by putting a sample on a glass weighing dish, storing the dish in a dark place for a given period of time in an open state at a temperature of 25 to 40° C. under a humidification condition of about 75 to 94% relative humidity, and then observing or measuring appearance, purity, water content and the like of Compound 1 or the substance in the form of a salt. Increase of water content before and after storage especially serves as an important hygroscopic index. For example, the evaluation is preferably performed after storage conditions of 25° C. and 84% RH. • High performance liquid chromatography apparatus: LC-10A Series (Shimadzu) or Agilent 1100 series (Agilent Technologies) • Solution concentration: 500 μg/ml • Injection: 10 μl • Detector: Ultraviolet absorptiometer (measurement wavelength: 245 nm) • Column: XBridge Shield RP18 5 μm, internal diameter: 4.6 mm, length: 15 cm (Waters) • Column temperature: Constant temperature around 40° C. • Mobile phase A: 20 mmol/l Sodium phosphate buffer (pH 7.0) • Mobile phase B: Acetonitrile • Liquid feeding program: A concentration gradient was formed by changing the mixing ratio of the mobile phase A and the mobile phase B as shown in Table 1. • Flow rate: 1.0 ml/minute • Water content measurement apparatus: AQ-7 (Hiranuma Sangyo) • Sample amount: 5 mg • Anolyte: Aqualyte RS (Sigma-Aldrich) • Catholyte: Aqualyte CN (Sigma-Aldrich) Compound 1 obtained by a method similar to the method described in Example 1 (two kinds of lots), the monohydrochloride obtained by the method described in Example 3, the dihydrochloride, and mixtures of the monohydrochloride and the dihydrochloride at ratios of 9:1, 8:2, 6:4, 4:6 and 2:8 were weighed on a glass weighing dish in an amount of each 40 mg, and each sample was stored in a dark place at 25° C. and 84% RH for 2 to 4 weeks. After the storage, appearance was evaluated by visual inspection. Further, purity was measured under the conditions of Test Example 7, and water content was measured under the conditions of Test Example 8.

[3] = Hygroscopicity Test 1 (open glass weighing dish, dark place, 25° C. and 84% RH); settings: for Appearance / Water content / Purity: 25° C. and 84% RH, dark, open; for Purity: HPLC
Experimental: as §1, with “(Sigma-Aldrich) The” for “(Sigma-Aldrich) Compound 1 obtained by a method similar to the method described in Example 1 (two kinds of lots), the”, “the monohydrobromide obtained by” for “the dihydrochloride, and mixtures of”, “the method described in Example 4,” for “the monohydrochloride”, “dihydrochloride as a control” for “dihydrochloride at ratios of 9:1, 8:2, 6:4, 4:6 and 2:8”, “of” for “of each”, “40 mg each,” for “40 mg,”

[4] = Measurement of water content (coulometric titration method); settings: as prepared, sample 5 mg
Source text: For evaluation of purity of Compound 1 or the substance in the form of a salt, the area percentage method based on HPLC is convenient. For evaluation of water content of Compound 1 or the substance in the form of a salt, the volumetric titration method, the coulometric titration method described in Japanese Pharmacopoeia, General Test Methods, “Water Determination”, the loss on drying test and the like can be used. When sample weight is small, the coulometric titration method can be preferably chosen.

[5] = storage for two weeks at 25° C. and 84% RH
[6] = after storage at 60° C. for 4 weeks
[7] = after storage at 25° C. and 84% RH for 4 weeks

| Appearance ([1]; after 2 weeks) | Water content ([1]; after 2 weeks) [%] | Appearance ([1]; before storage) | Water content ([1]; before storage) [%] | Purity ([1]; after 2 weeks) [%] | Purity ([1]; before storage) [%] | Appearance ([2]; after 2 weeks) | Appearance ([2]; before storage) | Purity ([2]; after 2 weeks) [%] | Purity ([2]; before storage) [%] | Appearance ([3]; after 2 weeks) | Water content ([3]; after 2 weeks) [%] | Appearance ([3]; before storage) | Water content ([3]; before storage) [%] | Purity ([3]; after 2 weeks) [%] | Purity ([3]; before storage) [%] | SMILES | also measured |
| --- | --- | --- | --- | --- | --- | --- | --- | --- | --- | --- | --- | --- | --- | --- | --- | --- | --- |
| Pale brown | 2.93 | White | 3.76 | 99.5 | 98.1 | Pale | White | 99.9 | 100.0 | Brown | 15.24 | White | 3.76 | 99.3 | 98.1 | CN[C@H]1CCN(S(=O)(=O)c2cccc3cncc(Cl)c23)C1.Cl.Cl [Dihydrochloride, (S)-1-(4-chloro-5-isoquinolinesulfonyl)-3-(methylamino)pyrrolidine dihydrochloride, reference compound] | Change of appearance ([1]; after storage at 60° C. for 2 weeks, dihydrochloride): change of appearance; Changes in physicochemical properties ([1]; stability test at 60° C. for two weeks): changes in physicochemical properties; Water content ([2]; after 2 weeks): 19.8%; Water content ([2]; before storage): 5.2%; Moisture absorption ([3]; after storage at 25° C. and 84% RH for 2 weeks): marked moisture absorption; Change of appearance ([3]; after storage at 25° C. and 84% RH for 2 weeks, dihydrochloride): apparent change of appearance; Changes in physicochemical properties [3, 5]: changes in physicochemical properties; Hygroscopicity [3, 5]: remarkable hygroscopicity |
| White | 0.05 | White | 0.14 | 99.9 | 99.7 |  |  |  |  | White | 0.05 | White | 0.14 | 99.9 | 99.7 | Br.CN[C@H]1CCN(S(=O)(=O)c2cccc3cncc(Cl)c23)C1 [Monohydrobromide, (S)-1-(4-chloro-5-isoquinolinesulfonyl)-3-(methylamino)pyrrolidine monohydrobromide] | Appearance ([1]; after 4 weeks): White; Water content ([1]; after 4 weeks): 0.05%; Purity ([1]; after 4 weeks): 99.8%; Thermal stability compared with the dihydrochloride ([1]; Test Example 9, 60° C.): more satisfactory thermal stability; Change of appearance [1, 6]: no change of appearance; Degradation of purity [1, 6]: no degradation of purity; Water content [4]: 0.14%; Appearance ([3]; after 4 weeks): White; Water content ([3]; after 4 weeks): 0.05%; Purity ([3]; after 4 weeks): 99.7%; Hygroscopicity compared with the dihydrochloride ([3]; Test Example 10, 25° C. and 84% RH): remarkably lower hygroscopicity; Change of appearance [3, 7]: no change of appearance; Degradation of purity [3, 7]: no degradation of purity; Increase of water content [3, 7]: no substantial increase of water content |
|  |  |  |  |  |  | Slightly | Slightly | 99.9 | 99.9 |  |  |  |  |  |  | CN[C@H]1CCN(S(=O)(=O)c2cccc3cncc(Cl)c23)C1 [Compound 1, (S)-1-(4-chloro-5-isoquinolinesulfonyl)-3-(methylamino)pyrrolidine] | Water content ([2]; after 2 weeks, listed as Compound 1 (Lot 1)): 5.7%; Water content ([2]; after 2 weeks, listed as Compound 1 (Lot 2)): 7.6%; Appearance ([2]; after 4 weeks): Slightly; Water content ([2]; after 4 weeks, listed as Compound 1 (Lot 1)): 8.1%; Water content ([2]; after 4 weeks, listed as Compound 1 (Lot 2)): 9.1%; Water content ([2]; before storage, listed as Compound 1 (Lot 1)): 0.9%; Water content ([2]; before storage, listed as Compound 1 (Lot 2)): 1.7%; Purity ([2]; after 4 weeks): 99.9%; Moisture absorption ([2]; both lots, after storage at 25° C. and 84% RH for 4 weeks): further moisture absorption |
